# Test results: US20180344768A1, “NK CELL-BASED THERAPY” (Onkimmune Limited, priority 2016, published 2018)
# Read-outs that look alike come from different tables or passages of the source.
# T1: decoy receptor DcR1 (Homo sapiens, UniProt O14798)
# T1 sequence (O14798 26-236): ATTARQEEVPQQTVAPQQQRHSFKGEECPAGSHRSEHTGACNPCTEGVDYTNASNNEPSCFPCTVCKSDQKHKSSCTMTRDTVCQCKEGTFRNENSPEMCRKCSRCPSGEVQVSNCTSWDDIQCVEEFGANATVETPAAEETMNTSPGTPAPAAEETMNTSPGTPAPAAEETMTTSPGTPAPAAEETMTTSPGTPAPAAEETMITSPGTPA
# T2: DcR1 (Homo sapiens, UniProt O14798)
# T2 sequence (O14798 26-236): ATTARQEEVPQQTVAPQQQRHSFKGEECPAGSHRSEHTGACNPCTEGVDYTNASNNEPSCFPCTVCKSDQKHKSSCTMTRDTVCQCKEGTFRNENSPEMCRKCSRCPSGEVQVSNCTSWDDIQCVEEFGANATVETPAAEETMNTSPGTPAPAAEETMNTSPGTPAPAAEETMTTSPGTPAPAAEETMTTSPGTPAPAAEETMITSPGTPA
# T3: DcR2 (Homo sapiens, UniProt Q9UBN6)
# T3 sequence (Q9UBN6 56-386): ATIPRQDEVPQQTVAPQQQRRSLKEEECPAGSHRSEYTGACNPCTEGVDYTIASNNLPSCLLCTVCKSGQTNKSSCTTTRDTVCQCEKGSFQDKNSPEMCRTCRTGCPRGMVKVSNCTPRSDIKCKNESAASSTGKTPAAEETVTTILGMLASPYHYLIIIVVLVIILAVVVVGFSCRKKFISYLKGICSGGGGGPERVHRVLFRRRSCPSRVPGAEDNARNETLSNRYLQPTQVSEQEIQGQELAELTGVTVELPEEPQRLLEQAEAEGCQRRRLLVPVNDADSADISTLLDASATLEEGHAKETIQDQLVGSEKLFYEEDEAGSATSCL
# B1: TRAIL variant: described in WO 2009/077857; encoded by the wildtype TRAIL gene containing the D269H/E195R mutation (protein)
# chain: MAMMEVQGGPSLGQTCVLIVIFTVLLQSLCVAVTYVYFTNELKQMQDKYSKSGIACFLKEDDSYWDPNDEESMNSPCWQVKWQLRQLVRKMILRTSEETISTVQEKQQNISPLVRERGPQRVAAHITGTRGRSNTLSSPNSKNEKALGRKINSWESSRSGHSFLSNLHLRNGELVIHEKGFYYIYSQTYFRFQERIKENTKNDKQMVQYIYKYTSYPDPILLMKSARNSCWSKDAEYGLYSIYQGGIFELKENDRIFVSVTNEHLIDMHHEASFFGAFLVG
# What was measured:
# DR5 [1] = conditions: 24 hours
# Procedure: Bortezomib was bought from Millennium Pharmaceuticals. Mouse anti-human DR5-AF647 (catalog number: 565498) was bought from BD Pharmingen. The stained cell samples were analyzed on BD FACS Canto II.
# MM1.S cells [2] = experiment: Bortezomib-induced sensitization of MM1.S cells to KHYG-1 cells expressing TRAIL variant; format: cell-based; conditions: MM1.S pretreated with 2.5 nM for 24 hours, 1:1 ratio, 12 hours co-culture
# Procedure: (2) 6 hours after electroporation of TRAIL variant mRNA, KHYG-1 cells were then cultured with MM cells in 12-well plate. After washing, cell concentrations were adjusted to 1×10^6/mL, before mixing KHYG-1 and MM1.S cells at 1:1 ratio to culture for 12 hours. (3) Flow cytometric analysis of the cytotoxicity of KHYG-1 cells was carried out. The co-cultured cells were collected, washed and then stained with CD2-APC antibody (5 uL/test), AnnexinV-FITC (5 uL/test) and SYTOX-Green (5 uL/test) using AnnexinV binding buffer. (4) Data were further analyzed using FlowJo 7.6.2 software. CD2-negative population represents MM.1S cells. KHYG-1 cells are strongly positive for CD2. Finally, the AnnexinV-FITC and SYTOX-Green positive cells in the CD2-negative population were analyzed.
# perforin = experiment: CMA-induced reduction of perforin expression in KHYG-1 cells; format: cell-based, human; conditions: 100 nM for 2 hours
# Procedure: Mouse anti-human perforin-AF647 (catalog number: 563576) was bought from BD Pharmingen. Concanamycin A (catalog number: SC-202111) was bought from Santa Cruz Biotechnology. The stained cell samples were analyzed using a BD FACS Canto II. […] (2) KHYG-1 cells (6 hours after electroporation, cultured in penicillin/streptomycin free RPMI1640 medium) were further treated with 100 nM CMA or equal volume of vehicle (DMSO) for 2 hours. (3) The cells were collected (1×10^6 cells/test) by centrifugation (1500 rpm×5 minutes) and the supernatant was aspirated. (4) The cells were fixed in 4% paraformaldehyde in PBS solution at room temperature for 15 minutes. (5) The cells were washed with 4 mL of FACS Buffer (PBS, 0.5-1% BSA, 0.1% sodium azide) twice. (6) The cells were permeabilized with 1 mL of PBS/0.1% saponin buffer for 30 minutes at room temperature. (7) The cells were washed with 4 mL of PBS/0.1% saponin buffer. (8) The cells were re-suspended in 100 uL of PBS/0.1% saponin buffer, before adding 5 uL of the antibody to each tube and incubating for 30 minutes on ice. (9) The cells were washed with PBS/0.1% saponin buffer 3 times by centrifugation at 1500 rpm for 5 minutes. (10) The cells were re-suspended in 500 uL of ice cold FACS Buffer and kept in the dark on ice or at 4° C. in a fridge briefly until analysis. (11) The cells were analyzed on the flow cytometer (BD FACS Canto II). […]
# KHYG-1 cells = experiment: KHYG-1 cell viability after CMA treatment; format: cell-based; conditions: 100 nM CMA or vehicle
# MM1.S cells [3] = experiment: Cytotoxicity of KHYG-1 cells with/without TRAIL variant in the presence of CMA; format: cell-based; conditions: 100 mM CMA for 2 hours, 1:1 ratio, 12 hours
# Procedure: KHYG-1 cells were transfected with the TRAIL variant (TRAIL D269H/E195R), as described above in Example 6. (1) MM1.S cells were used as target cells. (2) 6 hours after electroporation of TRAIL mRNA, KHYG-1 cells were treated with […] CMA or an equal volume of vehicle for 2 hours. […] (5) The KHYG-1 and MM1.S cells were mixed at 1:1 ratio and co-cultured for 12 hours. (6) Flow cytometric analysis of the cytotoxicity of KHYG-1 cells was carried out. The co-cultured cells were washed and stained with CD2-APC antibody (5 uL/test). (7) After washing, further staining was performed with AnnexinV-FITC (5 uL/test) and SYTOX-Green (5 uL/test) using AnnexinV binding buffer. (8) Data were further analyzed using FlowJo 7.6.2 software. CD2-negative population represents MM1.S cells. KHYG-1 cells are strongly positive for CD2. The AnnexinV-FITC and SYTOX-Green positive cells in CD2-negative population were then analyzed.
# DR4 = DR4 (Homo sapiens, UniProt O00220); conditions: surface plasmon resonance; cited from earlier work
# decoy receptor DcR1 = biological target: T1, decoy receptor DcR1; conditions: surface plasmon resonance; cited from earlier work
# CTLA4 gene = experiment: gRNA cleavage activity, T7E1 mismatch detection assay in K562 cells; format: cell-based, human; conditions: CRISPR/Cas9, agarose gel after T7E1
# From the text: (§1) Two gRNA candidates were selected for each target gene and their cleavage efficacies in K562 cells determined. The sequences of the gRNA candidates are shown in Table 1 and the Protospacer Adjacent Motif (PAM) relates to the last 3 bases of the sequence. The flanking regions of the gRNA sequences on the LIR2 gene (SEQ ID NO: 1; amino acid translation SEQ ID NO: 2) and the CTLA4 gene (SEQ ID NO: 7; amino acid translation SEQ ID NO: 8) are shown in FIGS. 1 and 2, respectively.
# (§2) K562 cells were transfected with the prepared gRNA constructs (FIG. 3) and subsequently harvested for PCR amplification. The presence of GFP expression was used to report successful incorporation of the gRNA construct into the K562 cells. This confirmed expression of the Cas9 gene and therefore the ability to knock out expression of the LIR2 and CTLA4 genes.
# (§3) The cleavage activity of the gRNA constructs was determined using an in vitro mismatch detection assay. T7E1 endonuclease I recognizes and cleaves non-perfectly matched DNA, allowing the parental LIR2 and CTLA4 genes to be compared to the mutated genes following CRISPR/Cas9 transfection and non-homologous end joining (NHEJ).
# LIR2 gene = experiment: as above; format: cell-based, human; conditions: CRISPR/Cas9, agarose gel after T7E1
# From the text: as §1, §2, §3
# The three bands corresponding to each mutation relate to the parental gene and the two resulting strands following detection of a mismatch in the DNA sequence after transfection.
# DR5 [4] = biological target: DR5 (Homo sapiens, UniProt O14763); conditions: D269H/E195R mutation vs wildtype TRAIL; cited from earlier work
# DcR1 = biological target: T2, DcR1; conditions: D269H/E195R mutation vs wildtype TRAIL; cited from earlier work
# DcR2 = biological target: T3, DcR2; conditions: D269H/E195R mutation vs wildtype TRAIL; cited from earlier work
molecule,measurement,setting,value
CC(C)C[C@H](NC(=O)[C@H](Cc1ccccc1)NC(=O)c1cnccn1)B(O)O [Bortezomib],DR5 expression,"DR5 [1]; MM1.S cells, low dose",increase
same,DR5 expression,"DR5 [1]; MM cells, high doses",could not be upregulated
same,DR5 expression,"DR5 [1]; RPMI8226 cells, low dose",increase
same,sensitivity of MM cells to KHYG-1 cells expressing the TRAIL variant,MM1.S cells [2],induced sensitivity
"C/C=C/[C@H]1O[C@@](O)([C@@H](C)[C@H](O)[C@H](C)[C@H]2OC(=O)/C(OC)=C/C(C)=C/[C@@H](C)[C@@H](O)[C@@H](CC)[C@@H](O)[C@H](C)C/C(C)=C/C=C/[C@@H]2OC)C[C@@H](O[C@H]2C[C@@H](O)[C@H](OC(N)=O)[C@@H](C)O2)[C@@H]1C [CMA, Concanamycin A]",perforin expression level,perforin,significantly decreased
same,viability of KHYG-1 cells,KHYG-1 cells,no negative effects
same,effect of CMA on cytotoxic activity of NK cells expressing TRAIL variant,MM1.S cells [3],unable to significantly diminish
Wildtype TRAIL: wildtype TRAIL ligand (CD253),Kd,DR4,> 2 nM
same,Kd,decoy receptor DcR1,> 20 nM
"g7 gRNA: gRNA candidate targeting hCTLA4, CACTCACCTTTGCAGAAGACAGG (SEQ ID NO: 9) (expressed or natural sequence; listed as Homo sapiens)",gRNA cleavage efficiency at CTLA4 (T7E1),CTLA4 gene,32%
"g9 gRNA: gRNA candidate targeting hLIR2, GAGTCACAGGTGGCATTTGGCGG (SEQ ID NO: 3) (expressed or natural sequence; listed as Homo sapiens)",gRNA cleavage efficiency (LIR2 knockout),LIR2 gene,11%
"g15 gRNA: gRNA candidate targeting hCTLA4, CCTTGTGCCGCTGAAATCCAAGG (SEQ ID NO: 10) (expressed or natural sequence; listed as Homo sapiens)",gRNA cleavage efficiency at CTLA4 (T7E1),CTLA4 gene,26%
"g18 gRNA: gRNA candidate targeting hLIR2, CGAATCGCAGGTGGTCGCACAGG (SEQ ID NO: 4) (expressed or natural sequence; listed as Homo sapiens)",gRNA cleavage efficiency (LIR2 knockout),LIR2 gene,10%
B1,affinity for DR5,DR5 [4],significantly increases the affinity
same,affinity for decoy receptor DcR1,DcR1,reducing the affinity
same,affinity for decoy receptor DcR2,DcR2,reducing the affinity
